{"source": "patent US20200009197A1", "about": "“COMPOSITIONS AND METHODS FOR THE REPROGRAMMING OF CELLS INTO CARDIOMYOCYTES” (Duke University, priority 2014, published 2020)", "key": {"[1]": {"settings": "cited from earlier work"}, "[2]": {"settings": "during controlled therapy; cited from earlier work"}, "[3]": {"test_system": "neonatal cardiac fibroblasts", "assay": "qPCR of cardiac and pluripotency gene expression in neonatal cardiac fibroblasts (with or without miR combo transfection)", "type": "cell-based, Mouse (C57BL/6)", "experimental": "Mouse (C57BL/6) neonatal cardiac fibroblasts or tail tip fibroblasts were isolated from 2 day old mouse neonates according to known methods e.g., outlined in Jayawardena et al [Jayawardena T, Mirotsou M, Dzau V J. Direct reprogramming of cardiac fibroblasts to cardiomyocytes using microRNAs. Methods in molecular biology. 2014; 1150:263-272]. Cells were cultured in growth media containing DMEM (ATCC) supplemented with 15% v/v FBS and 1% v/v penicillin/streptomycin. Cells were used at passage 1 or passage 2.\nCells were seeded at 5000 cells/cm^2 in growth media. Twenty-four hours later growth media was replaced with chemically defined reprogramming media (Advanced DMEM/F12, 0.2% w/v BSA, 250 μM Ascorbic Acid, 1× Insulin-Transferrin-Selenium, 1× L-Glutamine, 1× Penicillin-Streptomycin). Fresh media was added every two days.\nFibroblasts were seeded into a 24 well-plate at 9,000 cells/well. […]\nThe GM comprises the following: DMEM (ATCC#30-2002), 15% v/v embryonic stem cell qualified fetal bovine serum, and 1× penicillin/streptomycin. […] Differentiation was assessed by qPCR, immunocytochemistry, and flow cytometry."}}, "data": [{"compound": "COC(=O)C1=C(C)NC(C)=C([N+](=O)[O-])[C@@H]1c1ccccc1C(F)(F)F", "note": "[R(+)Bay K 8644, R-(+)-1,4-Dihydro-2,6-dimethyl-5-nitro-4-[2-(trifluoromethyl)phenyl]-3-pyridinecarboxylic acid methyl ester]", "values": [{"measurement": "soluble to, in DMSO", "setting": "[1]; DMSO", "value": 100, "unit": "mM"}, {"measurement": "soluble to, in ethanol", "setting": "[1]", "value": 100, "unit": "mM"}]}, {"compound": "O=C(O)C=C(CCc1ccc(Cl)cc1)c1ccccc1", "note": "[PS48, 5-(4-Chloro-phenyl)-3-phenyl-pent-2-enoic acid]", "values": [{"measurement": "solubility in DMSO", "setting": "[1]; DMSO", "value": "soluble in DMSO"}]}, {"compound": "CCCC(CCC)C(=O)O", "note": "[Valproic acid, 2-propylpentanoic acid]", "values": [{"measurement": "serum or plasma concentrations", "setting": "[2]", "value": "20 to 100", "unit": "mg/L"}]}, {"compound": "O=C1O[C@H]([C@@H](O)CO)C(O)=C1O", "note": "[ascorbic acid]", "values": [{"measurement": "effects of miR-combo upon cardiac gene expression", "setting": "[3]; added to growth media", "value": "augmented"}, {"measurement": "additive effect on cardiac gene expression at gene and protein level", "setting": "[3]; increasing concentration", "value": "increased the additive effect"}]}, {"compound": "O=C(O)C(Cc1c[nH]c2ccccc12)N1C(=O)c2ccccc2C1=O", "note": "(stereo not drawn) [RG108, 2-(1,3-Dioxo-1,3-dihydro-2H-isoindol-2-yl)-3-(1H-indol-3-yl)propionic acid]", "values": [{"measurement": "soluble to, in DMSO", "setting": "[1]; DMSO", "value": 100, "unit": "mM"}, {"measurement": "soluble to, in ethanol", "setting": "[1]", "value": 100, "unit": "mM"}]}, {"compound": "Cc1cccc(-c2nn(C(=S)Nc3ccccc3)cc2-c2ccnc3ccccc23)n1", "note": "[A83-01, 3-(6-Methyl-2-pyridinyl)-N-phenyl-4-(4-quinolinyl)-1H-pyrazole-1-c arbothioamide]", "values": [{"measurement": "soluble to, in DMSO", "setting": "[1]; DMSO", "value": 100, "unit": "mM"}]}]}
